Test results taken from publication PMC6770071, “XIAP as a Target of New Small Organic Natural Molecules Inducing Human Cancer Cell Death” (Cancers, 2019).
≈ marks a conversion by molar mass, not a printed value.

Tests used:
MCF7 cells [1] = test: TUNEL assay; assay type: cell-based, human; settings: MCF7, 12 h; gibbilimbol B/eriopodol A 30 µg/mL, erioquinol 10 µg/mL
Experimental: Using published protocols, MCF7 or U373 cells cultured in 120-mm coverslips were fixed in 4% paraformaldehyde in 0.1 M phosphate buffer (PB), pH 7.4, for 10 min. The TUNEL method (DeadEnd Fluorometric TUNEL System, Promega) was used to assay apoptosis, according to the manufacturer’s protocol. DAPI (nuclei detection) staining was also performed.

U373 cells [2] = test: ROS detection with DCFH-DA, U373 cells; assay type: cell-based, human; settings: U373, 6 h; gibbilimbol B/eriopodol A 30 µg/mL, erioquinol 10 µg/mL
Experimental: MCF7 or U373 cells cultured in 120-mm coverslips were exposed to 30 µM DCFH-DA (0.1 M PB, pH 7.4) and fixed in 4% paraformaldehyde for 20 min. For fluorescence detection, coverslips were mounted on glass slides and observed with a laser-scanning confocal microscope (TCS SP8 System and Application suite X, Leica Microsystems). DAPI and fluorescein phalloidin (nuclei and cytoskeleton detection, respectively) staining was also used.

MCF7 cells [3] = test: TMRM mitochondrial membrane potential analysis, MCF7 cells; assay type: cell-based, human; settings: gibbilimbol B/eriopodol A 30 µg/mL, erioquinol 10 µg/mL; for TMRM fluorescence (mitochondria membrane potential): MCF7, increasing time; for time to full response of TMRM fluorescence decrease: MCF7
Experimental: (§1) Using published protocols, mitochondria of MCF7 and U373 cells were labeled using TMRM, a voltage-sensitive cationic lipophilic dye, partitioning and accumulating in the mitochondrial matrix based upon the Nernst equation. After treatments, cells were trypsinised, counted and incubated with 100 nM TMRM for 30 min at 37 °C. Fluorescence was measured by using a Glomax Multi Detection System microplate reader (Promega), excitation wavelength: 525 nm; emission wavelength: 580–640 nm). After background subtraction, the data were normalised on cell number.

MCF7 cells [4] = test: Confocal co-localisation of cytochrome c with COX IV, MCF7 cells; assay type: cell-based, human; settings: MCF7, 3 h; gibbilimbol B/eriopodol A 30 µg/mL, erioquinol 10 µg/mL
Experimental: (§2) Using published protocols, MCF7 or U373 cells cultured in 120-mm coverslips were fixed in 4% paraformaldehyde in 0.1 M PB, pH 7.4, for 10 min. Cells were pre-incubated for 1 h min with 5% of normal goat serum (Life Technologies, Monza, Italy) in 0.1 M PB (pH 7.4) containing 0.1% Triton X-100, before overnight incubation with the rabbit monoclonal anti-cleaved caspase 7 (Cell Signaling Technology, Danvers, MA, USA). In double-label immunofluorescence experiments, the mouse monoclonal anti-cytochrome c primary antibody (Cell Signaling Technology) was used in conjunction with the rabbit monoclonal primary antibody directed to COX IV (Cell Signaling Technology). For fluorescence detection, coverslips were stained with the appropriate Alexa Fluor secondary antibodies (Life Technologies) and mounted on glass slides in a ProLong Gold Antifade Mountant (Life Technologies). DAPI and/or fluorescein phalloidin (cytoskeleton detection) staining was also used. Cells were analysed with a DMI4000 B automated inverted microscope equipped with a DCF310 digital camera (Leica Microsystems, Wetzlar, Germany). When indicated, confocal imaging was performed with a TCS SP8 System (Leica Microsystems). Image acquisitions were controlled by the Leica Application Suite X.

U373 cells [5] = test: TMRM mitochondrial membrane potential analysis, U373 cells; assay type: cell-based, human; settings: U373, increasing time; gibbilimbol B/eriopodol A 30 µg/mL, erioquinol 10 µg/mL
Experimental: as §1

MCF10 cells = test: MTT cell viability assay, MCF10 cells; assay type: cell-based; settings: Homo sapiens, 24 h, non-tumourigenic breast MCF10 cells
Experimental: (§3) Human U373 glioma, MCF7 breast cancer, A549 lung cancer and PC-3 prostate cancer cells were grown in Dulbecco’s Modified Eagle Medium (DMEM), supplemented with 10% foetal bovine serum, 2 mM glutamine, 100 U/mL penicillin/streptomycin, at 37 °C in a humidified atmosphere containing 5% CO2 (logarithmic growth phase, routine passages every 3 days). The human breast epithelial cell line MCF10 was cultured in DMEM/F12 Ham’s Mixture supplemented with 5% horse serum, epithelial growth factor 20 ng/mL, insulin 10 μg/mL, hydrocortisone 0.5 mg/mL, cholera toxin 100 ng/mL, and 100 U/mL penicillin/streptomycin. […]
(§4) U373, MCF7, A549, PC-3, HUVEC, and MCF10 cell viability was determined by MTT assay using published protocols. MTT absorbance was quantified spectrophotometrically using a Glomax Multi Detection System microplate reader (Promega, Milano, Italy).
(§5) Statistical significance of raw data between the groups in each experiment was evaluated using unpaired Student’s t-test (single comparisons) or one-way ANOVA followed by the Newman-Keuls post-test (multiple comparisons). The IC50 and Emax concentration were determined by non-linear regression curve analysis of the concentration-effect responses. […] The results were expressed as means ± standard error of mean (SEM) of the indicated n values.

MCF7 cells [6] = test: Bright field microscopy and DAPI staining of cell morphology; assay type: cell-based, human; settings: MCF7, 6 h; for cell morphology, bright field microscopy: increasing concentrations; for nuclei, DAPI staining: gibbilimbol B/eriopodol A 30 µg/mL, erioquinol 10 µg/mL
Experimental: as §2

[7] = tested on: human umbilical vein endothelial cells (HUVEC); test: MTT cell viability assay, HUVEC; assay type: cell-based; settings: 24 h
Experimental: as §3, §4, §5

caspase 9 and 7 = test: Cleaved-caspase 9 and 7 western blot / immunofluorescence in MCF7 cells; assay type: cell-based, human; settings: gibbilimbol B/eriopodol A 30 µg/mL, erioquinol 10 µg/mL; for cleaved-caspase 7 staining, immunofluorescence: MCF7, 3 and 6 h; for caspase activation, western blot: MCF7, 3 h and 6 h
Experimental: as §2
Using published protocols, MCF7 and MCF10 cells were homogenised in RIPA lysis buffer, supplemented with a cocktail of protease inhibitors (cOmplete; Roche Diagnostics, Milano, Italy). Equal amounts of proteins were separated by 4–20% SDS-polyacrylamide gel electrophoresis (Criterion TGX Stain-free precast gels and Criterion Cell system; Bio-Rad, Hercules, CA, USA) and transferred onto nitrocellulose membrane using a Bio-Rad Trans-Blot Turbo System. When indicated, the membranes were probed using the rabbit monoclonal anti-cleaved caspase 7 and anti-XIAP (Cell Signaling Technology) primary antibodies. After the incubation with the appropriate horseradish-peroxidase-conjugated secondary antibody (Cell Signaling Technology), bands were visualised using the Clarity Western ECL substrate with a ChemiDoc MP imaging system (Bio-Rad). To monitor for potential artefacts in loading and transfer among samples in different lanes, the blots were routinely treated with the Restore Western Blot Stripping Buffer (ThermoFisher Scientific) and re-probed with the goat anti-Lactate dehydrogenase (LDH)-A (Santa Cruz Biotechnology) and the mouse anti-vinculin primary antibodies. The stain-free gel was used as loading control as well. When appropriated, bands were quantified for densitometry using the Bio-Rad Image Lab software.

U373 cells [8] = test: Confocal co-localisation of cytochrome c with COX IV, U373 cells; assay type: cell-based, human; settings: U373, 3 h; gibbilimbol B/eriopodol A 30 µg/mL, erioquinol 10 µg/mL
Experimental: as §2

SMILES	TUNEL staining (DNA fragmentation) (MCF7 cells [1])	ROS (DCFH-DA staining) (U373 cells [2])	TMRM fluorescence (mitochondria membrane potential) (MCF7 cells [3])	time to full response of TMRM fluorescence decrease (MCF7 cells [3]) [h]	subcellular location of cytochrome c (MCF7 cells [4])	TMRM fluorescence (mitochondria membrane potential) (U373 cells [5])	IC50 (MCF10 cells) [µg/mL]	cell morphology, bright field microscopy (MCF7 cells [6])	nuclei, DAPI staining (MCF7 cells [6])	IC50 [7] [µg/mL]	cleaved-caspase 7 staining, immunofluorescence (caspase 9 and 7)	caspase activation, western blot (caspase 9 and 7)	subcellular location of cytochrome c (U373 cells [8])
CCCCCC/C=C\CCC1(O)C=CC(=O)C=C1 [Erioquinol, (Z)-4-(dec-3′-enyl)-4-hydroxycyclohexa-2,5-dien-1-one]	DNA fragmented cells were few	marked accumulation of ROS	comparable decrease in TMRM fluorescence vs. control	≤ 1	release of cytochrome c	comparable decrease in TMRM fluorescence vs. control	1.7 (≈ 6.84 µM)	translucent cytoplasm and no overall nuclei condensation	appearence of multinucleated cells	0.36 (≈ 1.45 µM)	positive cells were absent	did not display any sign of caspase 7 activity	release of cytochrome c
CCCCCC/C=C/CCc1ccc(O)cc1 [Gibbilimbol B, (E)-4-(dec-3′-enyl)phenol]	inter-nucleosomal degradation of genomic DNA typical of late apoptotic cells	absent	comparable decrease in TMRM fluorescence vs. control	≤ 1	release of cytochrome c	comparable decrease in TMRM fluorescence vs. control	17.1 (≈ 73.6 µM)	morphological hallmarks of apoptosis	nuclei of cells undergoing apoptosis	11.5 (≈ 49.4 µM)	intensive cleaved-caspase 7 staining	activation of caspase 9 and 7	release of cytochrome c
